Laboratory results as given in patent US10988478B1, “Pyrazolo[1,5a]pyrimidine derivatives as IRAK4 modulators” (Genentech, Inc., priority 2015, dated 2021).

Target: human IRAK4 (Homo sapiens (Human), UniProt Q9NWZ3)
Experiment: IRAK4 kinase inhibition, Transcreener fluorescence polarization ADP assay
Assay type: biochemical
Details: recombinant full-length His6-IRAK4; 125 uM ATP; 90 min; Ki computed using ATP Km 642 uM
Description: Compounds were assayed for inhibition of human IRAK4 and IRAK1 catalytic activity using recombinant enzyme produced from insect cells. Full-length IRAK4 protein, carrying an N-terminal His6-Tag, was obtained from Life Technologies (Carlsbad, Calif., USA). The IRAK1 construct was produced internally and was comprised of IRAK1 residues Arg194 to Ser712, preceded by an NH2-terminal His6 tag and the coding sequence for glutathione-S-transferase.

human IRAK4, sequence (Q9NWZ3 whole entry): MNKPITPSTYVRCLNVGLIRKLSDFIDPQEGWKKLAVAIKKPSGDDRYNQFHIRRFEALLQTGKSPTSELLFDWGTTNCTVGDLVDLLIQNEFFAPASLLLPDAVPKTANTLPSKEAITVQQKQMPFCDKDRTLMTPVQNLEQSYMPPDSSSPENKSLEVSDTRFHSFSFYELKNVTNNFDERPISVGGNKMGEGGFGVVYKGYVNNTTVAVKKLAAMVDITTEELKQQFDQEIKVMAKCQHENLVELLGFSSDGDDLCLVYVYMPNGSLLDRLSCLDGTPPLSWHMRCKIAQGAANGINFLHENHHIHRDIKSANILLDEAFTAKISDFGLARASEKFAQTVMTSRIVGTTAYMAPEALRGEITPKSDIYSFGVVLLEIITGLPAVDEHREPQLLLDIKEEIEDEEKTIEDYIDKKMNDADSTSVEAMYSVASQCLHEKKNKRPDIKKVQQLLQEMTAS

Compound | Ki [nM]
CC1(C)Cc2cc(NC(=O)c3cnn4cccnc34)c(OC[C@@H]3[C@H]4CN(CC(F)F)C[C@@H]34)cc2O1 [Example 294, N-(6-(((1R,5S,6R)-3-(2,2-difluoroethyl)-3-azabicyclo[3.1.0]hexan-6-yl)methoxy)-2,2-dimethyl-2,3-dihydrobenzofuran-5-yl)pyrazolo[1,5-a]pyrimidine-3-carboxamide] | 14
CC1(C)Cc2cc(NC(=O)c3cnn4cccnc34)c(OCC3CC3)cc2O1 [Example 298, N-(6-(Cyclopropylmethoxy)-2,2-dimethyl-2,3-dihydrobenzofuran-5-yl)pyrazolo[1,5-α]pyrimidine-3-carboxamide] | 7
CC1(COc2cc3c(cc2NC(=O)c2cnn4cccnc24)CC(C)(C)O3)COC1 [Example 299, N-(2,2-Dimethyl-6-((3-methyloxetan-3-yl)methoxy)-2,3-dihydrobenzofuran-5-yl)pyrazolo[1,5-α]pyrimidine-3-carboxamide] | 31
CC1(C)Cc2cc(NC(=O)c3cnn4cccnc34)c(OCc3ccncc3)cc2O1 [Example 301, N-(2,2-Dimethyl-6-(pyridin-4-ylmethoxy)-2,3-dihydrobenzofuran-5-yl)pyrazolo[1,5-α]pyrimidine-3-carboxamide] | 17
CC1(C)Cc2cc(NC(=O)c3cnn4cccnc34)c(OCC(F)F)cc2O1 [Example 302, N-(6-(2,2-Difluoroethoxy)-2,2-dimethyl-2,3-dihydrobenzofuran-5-yl)pyrazolo[1,5-α]pyrimidine-3-carboxamide] | 11
CN1CCCC(Oc2cc3c(cc2NC(=O)c2cnn4cccnc24)CC(C)(C)O3)C1 (stereo not drawn) [Example 304, N-(2,2-Dimethyl-6-((1-methylpiperidin-3-yl)oxy)-2,3-dihydrobenzofuran-5-yl)pyrazolo[1,5-α]pyrimidine-3-carboxamide] | 720
CC1(C)Cc2cc(NC(=O)c3cnn4cccnc34)c(OC[C@@H]3CCNC(=O)C3)cc2O1 [Example 305] | 29

More lines, in order of falling Ki, values ahead:

Ki [nM] | Compound
52 | CC1(C)Cc2cc(NC(=O)c3cnn4cccnc34)c(OC[C@H]3CCNC(=O)C3)cc2O1 [Example 306, (S)-N-(2,2-Dimethyl-6-((2-oxopiperidin-4-yl)methoxy)-2,3-dihydrobenzofuran-5-yl)pyrazolo[1,5-α]pyrimidine-3-carboxamide]
32 | CC1(C)Cc2cc(NC(=O)c3cnn4cccnc34)c(OC[C@H]3CNC(=O)C3)cc2O1 [Example 307, N-[2,2-Dimethyl-6-[[(3R)-5-oxopyrrolidin-3-yl]methoxy]-3H-benzofuran-5-yl]pyrazolo[1,5-a]pyrimidine-3-carboxamide]
23 | CC1(C)Cc2cc(NC(=O)c3cnn4cccnc34)c(OCc3cccnc3)cc2O1 [Example 297, N-(2,2-Dimethyl-6-(pyridin-3-ylmethoxy)-2,3-dihydrobenzofuran-5-yl)pyrazolo[1,5-α]pyrimidine-3-carboxamide]
18 | CC1(C)Cc2cc(NC(=O)c3cnn4cccnc34)c(OCC3CCOC3)cc2O1 (stereo not drawn) [Example 296, N-(2,2-Dimethyl-6-((tetrahydrofuran-3-yl)methoxy)-2,3-dihydrobenzofuran-5-yl)pyrazolo[1,5-α]pyrimidine-3-carboxamide]
9 | CC1(C)Cc2cc(NC(=O)c3cnn4cccnc34)c(OC[C@@H]3CNC(=O)C3)cc2O1 [Example 308, N-[2,2-Dimethyl-6-[[(3S)-5-oxopyrrolidin-3-yl]methoxy]-3H-benzofuran-5-yl]pyrazolo[1,5-a]pyrimidine-3-carboxamide]
8.2 | CC1(C)Cc2cc(NC(=O)c3cnn4cccnc34)c(OC[C@H]3[C@@H]4CNC[C@@H]43)cc2O1 [Example 295, N-(6-(((1R,5S,6R)-3-azabicyclo[3.1.0]hexan-6-yl)methoxy)-2,2-dimethyl-2,3-dihydrobenzofuran-5-yl)pyrazolo[1,5-a]pyrimidine-3-carboxamide]
7 | Cn1cc(COc2cc3c(cc2NC(=O)c2cnn4cccnc24)CC(C)(C)O3)cn1 [Example 300, N-(2,2-Dimethyl-6-((1-methyl-1H-pyrazol-4-yl)methoxy)-2,3-dihydrobenzofuran-5-yl)pyrazolo[1,5-α]pyrimidine-3-carboxamide]
